# Conditions: for aqueous solubility: pH 6.8
Compound,MDR1-MDCK efflux ratio,"intrinsic clearance, human liver microsomes","intrinsic clearance, rat liver microsomes",aqueous solubility,"fraction unbound, human plasma","fraction unbound, rat plasma"
c1cc2cc[nH]c2c(CC2CN(C3CCCC3)C2)n1,3.21,≤ 4.74 mL/min/kg,80.5 mL/min/kg,18.6 µg/mL,–,–
c1cc(Nc2cc(C3CC3)[nH]n2)nc(Nc2ccc3nc[nH]c3c2)n1,2.39,15.1 mL/min/kg,71.4 mL/min/kg,–,–,–
CCN(Cc1cccs1)C(=O)CN1CCC(n2c(=O)[nH]c3ccccc32)CC1,–,151 mL/min/kg,2800 mL/min/kg,–,–,–
Cc1ccc(C(=O)O)cc1NS(=O)(=O)c1csc(C(=O)Nc2ccccc2)c1,0.879,≤ 4.74 mL/min/kg,≤ 10.7 mL/min/kg,61.5 µg/mL,–,–
Cc1nn(C)c2nc(C(C)C)cc(C(=O)O)c12,–,≤ 4.74 mL/min/kg,≤ 10.7 mL/min/kg,32.5 µg/mL,–,–
O=c1cc2c(n[nH]1)-c1cnc(N3CCCC3)nc1CC2,0.748,6.66 mL/min/kg,103 mL/min/kg,–,–,–
CS(=O)(=O)N1CCN(Cc2cc3c(cc2O)OCO3)CC1,–,28.6 mL/min/kg,278 mL/min/kg,–,–,–
O=C(Nc1ccccc1)c1sc(N2CCOCC2)nc1-c1ccccc1,0.494,–,–,0.26 µg/mL,–,–
Cn1nccc1C(=O)C1CCN(C(=O)c2cc(C(C)(C)C)nn2C)CC1,–,≤ 4.74 mL/min/kg,97.9 mL/min/kg,–,–,–
CCCCN(C)C(=O)c1cn(-c2ccc(C)c(C)c2)nn1,–,127 mL/min/kg,530 mL/min/kg,8.81 µg/mL,–,–
CCC(=O)Nc1cccc(Oc2nc(Nc3ccc(N4CCN(C)CC4)cc3OC)ncc2Cl)c1,14,15.9 mL/min/kg,238 mL/min/kg,–,–,–
CN(C)c1ncc(CN2CCC(Cc3ccc(F)cc3)CC2)s1,–,43.1 mL/min/kg,2570 mL/min/kg,–,–,–
CN(CC(=O)N(C)C)Cc1cc(C#N)ccc1F,0.713,≤ 4.74 mL/min/kg,38.1 mL/min/kg,35.4 µg/mL,–,–
Cc1c[nH]c2nccc(Oc3c(F)cc(Nc4cc(Cl)nc(N)n4)cc3F)c12,2.53,14.3 mL/min/kg,173 mL/min/kg,–,0.0006,0.00206
c1ccc(C2(c3ccccc3)CCCN(Cc3nnc(C4CC4)o3)C2)cc1,0.685,246 mL/min/kg,1200 mL/min/kg,35.6 µg/mL,–,–
Cc1cc(-c2nccs2)nc(CC2CCNCC2)n1,20.1,≤ 4.74 mL/min/kg,38.8 mL/min/kg,36.5 µg/mL,–,–

Compound,MDR1-MDCK efflux ratio,"intrinsic clearance, human liver microsomes","intrinsic clearance, rat liver microsomes",aqueous solubility,"fraction unbound, human plasma","fraction unbound, rat plasma"
CCN1CCOC(C(=O)N2CCC(c3cn[nH]c3)CC2)C1 (stereo unspecified),3.51,≤ 4.74 mL/min/kg,–,–,–,–
CN(CCNC(=O)NC1CCOCC1)C1CCCC1,18.2,≤ 4.74 mL/min/kg,184 mL/min/kg,–,–,–
CN1CC[C@@H](c2c(O)cc(O)c3c(=O)cc(-c4ccccc4Cl)oc23)[C@@H]1CO,122,27 mL/min/kg,142 mL/min/kg,64.9 µg/mL,–,–
COCc1nc(C2CCN(CCO)CC2)no1,–,≤ 4.74 mL/min/kg,72.4 mL/min/kg,36.1 µg/mL,–,–
CC(C)(C)C[C@@H]1COCc2nc(OCc3ccccn3)cc(=O)n21,–,–,–,62.1 µg/mL,–,–
CCC(=O)NCc1ccnc(N(C)C)c1,0.879,≤ 4.74 mL/min/kg,≤ 10.7 mL/min/kg,30.6 µg/mL,–,–
O=c1n(CCc2ccncc2)nnn1-c1ccccc1,0.571,5.8 mL/min/kg,65.2 mL/min/kg,23.1 µg/mL,–,–
CN(CCN1CCCCC1)c1cncc(C(N)=O)n1,4.41,≤ 4.74 mL/min/kg,95.2 mL/min/kg,–,–,–
CC1CCC(O)(CSc2nnnn2C2CC2)CC1 (stereo unspecified),0.616,12.7 mL/min/kg,355 mL/min/kg,–,–,–
CN(C)C(=O)CN1CCN(C(=O)c2ccc3ccccc3c2O)CC1,2.35,≤ 4.74 mL/min/kg,≤ 10.7 mL/min/kg,43.9 µg/mL,–,–
c1ccc(N2CCOCC2)c(CNc2cc(N3CCCC3)ncn2)c1,2.09,190 mL/min/kg,1520 mL/min/kg,–,–,–
COCCN1CCOc2nc3c(C)cccc3cc2C1,0.564,14.7 mL/min/kg,882 mL/min/kg,–,–,–
O=C(Nc1ccc(F)cc1)[C@H](O)c1ccccc1,–,–,–,42.9 µg/mL,–,–
Cc1ccccc1-n1cc[nH]c(=O)c1=O,1.26,5.09 mL/min/kg,≤ 10.7 mL/min/kg,58.4 µg/mL,–,–
CCCS(=O)(=O)c1nc(NC2CC2)cc(-c2ccc3c(ccn3C3CC(C)(C)NC(C)(C)C3)c2)n1,34.9,51.1 mL/min/kg,123 mL/min/kg,–,–,–
Cc1cc(Nc2ccc3c(c2)oc(=O)n3C)nc(C2CC2)n1,0.717,23.9 mL/min/kg,159 mL/min/kg,5.34 µg/mL,–,–

# More lines, now with the values ahead:
MDR1-MDCK efflux ratio,"intrinsic clearance, human liver microsomes","intrinsic clearance, rat liver microsomes",aqueous solubility,"fraction unbound, human plasma","fraction unbound, rat plasma",Compound
0.697,18.7 mL/min/kg,483 mL/min/kg,–,–,–,CN(C)c1cncc(-c2ccc(C(=O)NC(C)(C)C)cc2)n1
0.581,27.8 mL/min/kg,1280 mL/min/kg,39.7 µg/mL,–,–,COc1c(C)cccc1CN1CCC(O)(c2ccc(F)cc2)CC1
–,≤ 4.74 mL/min/kg,109 mL/min/kg,40.1 µg/mL,–,–,Cc1cc(C(=O)NCC2(c3ccccc3)CC2)on1
4.39,≤ 4.74 mL/min/kg,≤ 10.7 mL/min/kg,–,–,–,Cc1nccc(N(C)Cc2ccc(N)nc2)n1
2.6,6.01 mL/min/kg,55.5 mL/min/kg,–,–,–,CC(C)n1cnnc1-c1cccc(N2Cc3ccc(Br)cc3C2=O)n1
0.966,≤ 4.74 mL/min/kg,18.9 mL/min/kg,11.7 µg/mL,–,–,Cc1ccc(-c2ccnc(O)c2C#N)cc1
0.634,≤ 4.74 mL/min/kg,30.1 mL/min/kg,–,–,–,N#Cc1c(F)cccc1Oc1cccnc1
0.499,113 mL/min/kg,1540 mL/min/kg,3.63 µg/mL,–,–,O=C(Cc1ccc2c(c1)CCC2)Nc1nc2ccccc2o1
0.134,159 mL/min/kg,451 mL/min/kg,45 µg/mL,–,–,CCOc1ccc(Nc2nc(-c3c(C)nc4ccccn34)cs2)cc1
14.5,≤ 4.74 mL/min/kg,34.3 mL/min/kg,–,–,–,C[C@H]1Oc2cc(cnc2N)-c2c(nn(C)c2C#N)CN(C)C(=O)c2ccc(F)cc21
1.52,–,–,0.38 µg/mL,–,–,Cc1ccc(CC(=O)NCc2cccc(C(=O)Nc3ccccc3)c2)cc1
–,–,–,0.45 µg/mL,–,–,O=C(Nc1nc2ccccc2[nH]1)c1cc(-c2ccccc2)nc2ccccc12
0.738,–,–,–,–,–,O=C(NNc1ccccc1)c1ccncc1
0.674,17.7 mL/min/kg,261 mL/min/kg,6.6 µg/mL,–,–,COc1ccccc1CC(=O)Nc1ncc(C)s1
0.599,86.4 mL/min/kg,695 mL/min/kg,36.8 µg/mL,–,–,CCOC(=O)c1cccnc1-c1ccc2[nH]ccc2c1
11.3,≤ 4.74 mL/min/kg,≤ 10.7 mL/min/kg,45.2 µg/mL,–,–,O=C(CCN1C(=O)CCC1=O)Nc1cccc2ncccc12
–,≤ 4.74 mL/min/kg,63.7 mL/min/kg,–,–,–,O=c1oc2cccnc2n1Cc1cnn(-c2ccccc2)n1
8.23,≤ 4.74 mL/min/kg,191 mL/min/kg,–,0.708,0.979,O=S(=O)(c1cccc2c(O)nccc12)N1CCCNCC1
0.136,–,–,0.29 µg/mL,–,–,Cc1ccsc1C(=O)Nc1nc2ccccc2s1
0.573,103 mL/min/kg,906 mL/min/kg,–,–,–,O=c1c2oc3ccccc3c2ncn1Cc1ccc(Cl)cc1
2.87,31.9 mL/min/kg,210 mL/min/kg,43.6 µg/mL,–,–,CC(=O)N(c1ccc(C)cc1)c1nc(Cn2ccnc2)cs1
0.8,13 mL/min/kg,141 mL/min/kg,30.4 µg/mL,–,–,Cc1cccc(C(=O)N(C)CCc2cnccn2)c1
20.6,≤ 4.74 mL/min/kg,23.9 mL/min/kg,57.5 µg/mL,–,–,CNC(=O)c1cn(C)nc1CC1CCN(Cc2cnc(-c3ccc(OC)cc3)nc2)CC1
–,206 mL/min/kg,240 mL/min/kg,5.7 µg/mL,–,–,Cc1ccc(NC(=O)c2cccc3cccnc23)cc1
2.85,60.4 mL/min/kg,25.6 mL/min/kg,2.75 µg/mL,–,–,CC(C)(C)c1ccc(C(=O)Nc2cn3cc(-n4ccnc4)ccc3n2)cc1
1.11,≤ 4.74 mL/min/kg,17.8 mL/min/kg,32.4 µg/mL,–,–,O=C(O)c1ccc(CN2CC[C@H](c3nc4cc(Cl)ccc4o3)C2)cc1
1.04,≤ 4.74 mL/min/kg,57.3 mL/min/kg,65.3 µg/mL,–,–,N#CCN(C(=O)c1cn(-c2ccc(Br)cc2)cn1)C1CC1
0.548,5.24 mL/min/kg,15.2 mL/min/kg,–,–,–,Cc1nccc(NC(=O)c2ccc(Cl)nc2Cl)n1
